Assays:
Format in all cases: cell-based, human
[1] = tested on: cisplatin-resistant ovarian cancer cell line A2780cis; assay: Caspase-3/7 activity assay (apoptotic cell death), compound alone or with cisplatin; conditions: compound 20 μM, 20 h
Outline: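 Caspase-3/7 activity in A2780cis cells treated with compound alone or with cisplatin, luminescent Caspase-Glo 3/7 read-out. Apoptotic morphology is checked microscopically just before measurement.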

[2] = tested on: cisplatin-resistant ovarian cancer cell line A2780cis; assay: CellTiter-Blue cell viability assay, compound alone or with cisplatin or carboplatin, 24 h; conditions: compound 20 μM; 24 h; untreated cells = 100%
Description: Data were expressed as mean±standard deviation. A Student's t test was used for the comparisons between the treatment with the combination of analogs with cisplatin and with analogs alone. P<0.05 was considered statistically significant. Combination index was calculated using CompuSyn software. A value of 0.3-0.7 for the combination index indicates synergism, 0.1-0.3 indicates strong synergism, and <0.1 indicates very strong synergism (Chou, 2006).
To further validate the activity of the identified 11 active compounds (see FIG. 3), a CellTiter-Blue cell viability assay was performed with increasing concentrations (10 μM, 20 μM and 50 μM) of the disclosed compounds (see FIG. 4 and Table 5). Cisplatin resistant ovarian cancer cells (A2780cis) were treated with a disclosed compound alone, cisplatin alone or a combination of a compound with cisplatin for 24 h to determine the effects of the compounds on cell viability.
Analysis of the effect of the disclosed compounds with another platinum-containing compound, carboplatin, was performed. A2780cis cells were treated with carboplatin alone or with the combination of carboplatin and the disclosed compounds at indicated concentrations for 24 h followed by the analysis of cell viability.

[3] = tested on: A2780cis cells; assay: Short-term (3 h) exposure, cell survival by CellTiter-Blue after 48 h in compound free media; conditions: cisplatin alone, viability after two days, in words
Description: FIG. 5. Short-term exposure of A2780cis cells to the combination of cisplatin and compound 1-6 dramatically reduces cell survival. A2780cis cells were treated with increasing doses of cisplatin alone or the combination of cisplatin with compound 1-6 (20 μM) for 3 h. The compounds were then washed out. Cell survival was determined after 48 h incubation of cells in compound free media by CellTiter-Blue assay.
Further analysis was performed with compound 1-6. […] This synergism for the combination of cisplatin and 1-6 was further confirmed using a fresh sample of high chemical purity (98%). This synergistic effect was also observed using the CellTiter-Blue cell viability assay (FIG. 5) under an alternative exposure strategy that mimics in viva drug administration to test the combination effect. Considering the clearance of cisplatin over the time and the duration of exposure of tumor cells to the effective doses of the drugs in vivo (Los et al., 1989), a short-term exposure of cells to the combination of 20 μM of 1-6 with various doses of cisplatin was tested, followed by cell viability assay after two days.

[4] = tested on: A2780cis cells; assay: Western blot of caspase/PARP cleavage, Noxa induction, RPA32 and H2AX phosphorylation; conditions: cisplatin 20 μM alone, FIG. 8A
Description: (§1) Whole cell lysate was prepared by lysing cells in cell lysis buffer (Cell signaling technology) containing complete protease inhibitor (Roche). Cell lysates were then cleared at 15,000 rpm for 15 min at 4° C. The protein content was quantified using a Bio-Rad Protein Assay kit (Bio-Rad Laboratories, Hercules, Calif.). The equal amount of protein was separated on Tris-glycine gels (Invitrogen). The separated proteins were blotted onto a polyvinylidene difluoride membrane and blocked overnight at 4° C. in phosphate-buffered saline containing 0.1% Tween 20 and 10% nonfat dry milk (blocking buffer). Membranes were incubated with primary antibodies in blocking buffer overnight at 4° C. Primary antibodies used were: β-actin from Sigma; Bax, Bak, Caspase-9 and cleaved Caspase-3 from Cell Signaling Technology; phospho-Histone H2AX (Ser 139) and Noxa from Millipore. Membranes were then washed and incubated in peroxidase conjugated anti-rabbit IgG (Sigma) or anti-mouse IgG (Sigma) secondary antibody for 1 h at room temperature. Membranes were developed using SuperSignal West Femto Maximum Sensitivity Substrate (Thermo Fisher Scientific).
A2780cis cells were treated with cisplatin alone, compounds alone or in combination with cisplatin at indicated concentrations for 20 h to analyze apoptotic cell death in response to treatment. […] Expression and cleavage of several major caspases (Caspase-8, Caspase-9 and Caspase-3), as well as poly(ADP-ribose) polymerase (PARP) and NOXA. A2780cis cells were treated with cisplatin (20 μM) alone, compounds (20 μM) alone or in combination with cisplatin for 20 h.
To determine the effects of the compounds on DNA damage and mitochondrial dysfunction, A2780cis cells were treated with cisplatin (20 μM) alone or the combination of cisplatin with 20 μM of compound 1-6. Replication protein A (RPA) is a single strand-specific DNA-binding protein, consisting of three subunits, RPA70, RPA32, and RPA14. RPA32 is phosphorylated in response to DNA replication stress. Western blot analysis was performed to evaluate the phosphorylation of RPA32 and histone H2AX, the induction of Noxa expression and cleavage of caspase-3. […] A2780cis cells were treated with cisplatin (50 μM) alone, 1-6 (50 μM) alone or the combination of cisplatin and compound 1-6 for 4 h. The oxygen consumption rate (OCR) was measured by a Seahorse extracellular flux analyzer.

[5] = tested on: PEO4, SKOV3, H1299, MDA-MB-231, Ca133 cells; assay: Western blot of PARP and Caspase-3 cleavage in other cisplatin-resistant cancer cells; conditions: 20 μM alone, 20 h, FIG. 9; in words
Description: FIG. 9. The combination of cisplatin and compound 1-6 triggers extensive apoptosis in various types of cisplatin- and multidrug-resistant tumor cells. Cisplatin-resistant cancer cells PEO4 (ovarian), SKOV3 (ovarian), H1299 (lung), MDA-MB-231 (breast), Ca133 (head & neck) were treated with DMSO (untreated), cisplatin (20 μM) alone, compound 1-6 (20 μM) alone, or the combination for 20 h. Cleavage of PARP and Caspase-3 were determined by western blot.
as §1
To evaluate whether the synergistic effects of the disclosed compounds and cisplatin could be extended to other types of cancer cells, breast cancer cells (MDA-MB-231), non-small cell lung carcinoma cells (H-1299), ovarian cancer cells (PEO4 and SKOV3) and head and neck cancer cells (Ca133) were treated with various combinations of cisplatin and compound 1-6 and analyzed for Caspase-3.

## N.N.[Cl][Pt][Cl] [cisplatin, reference compound]
[1]; Table 1, mean ± S.D. of triplicates
  caspase-3/7 activity (Lum), compound alone: 30 ± 1 Lum
[1]; Table 2
  caspase-3/7 activity (Lum), compound alone: 30 ± 1 Lum
[1]; Table 3
  caspase-3/7 activity (Lum), compound alone: 35 ± 4 Lum
[1]; Table 4
  caspase-3/7 activity (Lum), compound alone: 35 ± 4 Lum
[1]; Table 6, untreated cells 9 ± 1
  caspase-3/7 activity (Lum) with compound alone: 28 ± 4 Lum
[2]
  survival (%) of cells with compound alone: 89.3 ± 0.6%
[3]
  effect of 3 hr exposure to cisplatin alone on cell viability: slight effect on cell viability
[4]
  time of increase in the phosphorylation of RPA32 post treatment, cisplatin alone: > 12 h
[5]
  cell death after single compound exposure: minimal effect in inducing cell death

Source: patent US10478437B2, “Combination therapy to enhance the anticancer efficacy of platinum drugs” (University of Pittsburgh-of the Commonwealth System of …, priority 2014, dated 2019)
